Assays:
A2058 cells [1] = test: Inhibition assay for phosphatidylinositol 3-kinase (pretreatment with wortmannin or LY294002, alamarBlue viability); format: cell-based, human; details: then compound 10^−5 M for 48 h, from averages of 6 parallels
Protocol: The association of PI3K activation with the antitumor activity of the conjugates was determined by pretreating the cells with PI3K inhibitors (wortmannin – W and LY294002 – LY). The antitumor effect of the conjugates and Dau on the cells pretreated with PI3K inhibitors or with DMSO (solvent of the inhibitors) was assessed by an alamarBlue-assay after 48 h of incubation. The results of the PI3K-assay were given by calculating the inhibition index as the ratio of the viability of the pretreated and control (DMSO-treated) cell populations being incubated with medium or conjugates (10^−5 M). […]
was measured with LS-50B Luminescence Spectrometer (Perkin Elmer Ltd., Buckinghamshire United Kingdom) by using λ = 560 nm for excitation and λ = 590 nm for detection of the emitted light.
Each data represents the mathematical average of six parallels. The decrease in the fluorescence intensity caused by the different treatments was normalized to the identical control and this value was given as ‘Viability’ in percent. […]
A2058 cells were prepared in 96-well plates as it was aforementioned in ‘Cell proliferation and cytotoxicity measurement’ section. […] The number of viable cells was determined by the alamarBlue-assay as it was described in ‘Cell proliferation and cytotoxicity measurement’ chapter. To analyze the effects of inhibitors on the actions of conjugates, the inhibition index was calculated by […]

A2058 cells [2] = test: Cellular uptake by flow cytometry (Dau fluorescence); format: cell-based, human; details: 10^−5 M, 1, 4 and 6 h, FACSCalibur flow cytometry, mean of 2 parallels
Protocol: For investigation and comparison of the cellular uptake of the conjugates, A2058 cells were treated with the conjugates at 10^−5 M concentration for 1, 4 and 6 h. The fluorescence intensity of intracellular Dau built in the conjugates and as the free drug was determined by flow cytometry (FACSCalibur; Becton Dickinson, San Jose, CA, USA).
Figure 2 Cellular uptake of Dau–GnRH-III conjugates and free daunorubicin (Dau) by A2058 cells. Cellular uptake of the compounds was studied in 10^−5 M concentration. GeoMean (geometric mean channel) value is a dimensionless value and refers to the relative fluorescence intensity. Data shown are mean of 2 parallels ± SD. […]
To study the cellular uptake of conjugates and Dau as the reference drug, A2058 cells (2 × 10^5 cells/well) were seeded on 12-well plates and cultured for 24 h. […] The measurements of internalized conjugates are based on the fluorescence activity of Dau. For detecting the intracellular fluorescence intensity of the cells, which is proportional with the cellular uptake, FACSCalibur flow cytometer (Becton Dickinson, San Jose, CA, USA) was used by collecting 10000 cells for each measurement. […] CellQuest Pro program (Becton-Dickinson, San Jose, CA, USA) was used for the measurement and the evaluation of relative fluorescence intensity (geometric mean channel – GeoMean values). […]

## COc1cccc2c1C(=O)c1c(O)c3c(c(O)c1C2=O)C[C@@](O)(C(C)=O)C[C@@H]3O[C@H]1C[C@H](N)[C@H](O)[C@H](C)O1 [daunorubicin]
A2058 cells [1]; A2058 cells pretreated 30 min with LY294002 (15 μM)
  inhibition index, LY294002: 100.7 ± 4.0%
A2058 cells [1]; A2058 cells pretreated 30 min with wortmannin (50 nM)
  inhibition index, wortmannin: 121.0 ± 8.1%
A2058 cells [2]
  Cellular uptake (GeoMean, relative intracellular fluorescence intensity normalized to control): high level of intracellular fluorescence

— publication PMC6178282, “Comparative cell biological study of in vitro antitumor and antimetastatic activity on melanoma cells of GnRH-III-containing conjugates modified with short-chain fatty acids” (Beilstein Journal of Organic Chemistry, 2018)
